Source: PMC10945480 (Journal of Medicinal Chemistry, 2024)
Where two headings read alike, the source gives them in different places.

Columns and labels:
washed human platelets = assay: U46619-induced platelet aggregation; format: cell-based; settings: Platelet; washed human platelets, U46619 (1 μM)
Method in brief: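 Washed platelets from ACD-anticoagulated blood of healthy donors, stirred at 1200 rpm, 37 °C in a turbidimetric aggregometer. Aggregation triggered by U46619 or collagen, scored as maximal rise in light transmission.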

ERp57 (PDIA3) = target: T1, ERp57 (PDIA3) (Homo sapiens, UniProt P30101); assay: ERp57 reductase assay (Di-E-GSSG); format: biochemical
T1 sequence (P30101 25-505): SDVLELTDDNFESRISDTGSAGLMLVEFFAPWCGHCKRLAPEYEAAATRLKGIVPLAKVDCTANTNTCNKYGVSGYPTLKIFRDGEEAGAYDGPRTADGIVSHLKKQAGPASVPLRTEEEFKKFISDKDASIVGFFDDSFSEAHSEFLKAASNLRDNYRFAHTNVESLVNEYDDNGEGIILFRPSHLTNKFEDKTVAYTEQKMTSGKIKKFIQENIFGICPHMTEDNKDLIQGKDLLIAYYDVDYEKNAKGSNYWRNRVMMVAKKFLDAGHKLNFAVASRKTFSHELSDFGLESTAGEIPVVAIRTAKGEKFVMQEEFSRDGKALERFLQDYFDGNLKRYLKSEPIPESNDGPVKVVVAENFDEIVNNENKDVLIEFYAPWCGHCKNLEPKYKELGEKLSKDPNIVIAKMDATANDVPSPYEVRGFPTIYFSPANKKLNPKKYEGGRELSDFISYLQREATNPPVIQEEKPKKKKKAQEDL
Source text: (§1) In addition to PDI, ERp57 (PDIA3) and ERp72 (PDIA4) are two other major members of the PDI family in both platelets and A549 cells.[62],[63]

ERp72 (PDIA4) = target: T2, ERp72 (PDIA4) (Homo sapiens, UniProt P13667); assay: ERp72 reductase assay (Di-E-GSSG); format: biochemical; settings: human recombinant
T2 sequence (P13667 21-645): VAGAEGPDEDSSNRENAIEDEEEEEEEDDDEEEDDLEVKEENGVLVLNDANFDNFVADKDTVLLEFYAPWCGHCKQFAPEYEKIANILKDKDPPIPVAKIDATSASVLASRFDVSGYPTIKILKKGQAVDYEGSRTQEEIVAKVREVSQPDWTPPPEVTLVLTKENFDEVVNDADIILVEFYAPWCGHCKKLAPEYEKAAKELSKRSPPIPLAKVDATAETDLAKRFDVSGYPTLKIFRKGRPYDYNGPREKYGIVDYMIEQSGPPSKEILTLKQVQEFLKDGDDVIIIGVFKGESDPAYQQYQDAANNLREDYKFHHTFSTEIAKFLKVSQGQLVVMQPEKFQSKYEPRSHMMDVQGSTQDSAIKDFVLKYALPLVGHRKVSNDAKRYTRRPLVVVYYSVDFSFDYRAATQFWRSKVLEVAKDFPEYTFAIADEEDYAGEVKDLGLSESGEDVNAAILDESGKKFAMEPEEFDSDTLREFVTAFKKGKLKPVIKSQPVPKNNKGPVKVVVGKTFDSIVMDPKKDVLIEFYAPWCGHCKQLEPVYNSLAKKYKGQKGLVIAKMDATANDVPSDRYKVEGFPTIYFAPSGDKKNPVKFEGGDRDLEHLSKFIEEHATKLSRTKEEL
Source text: as §1

[1] = Parallel artificial membrane permeability assay (PAMPA); settings: 50 μM, 25 ℃, 3 h, verapamil = 100%, ranitidine = 0%
Method in brief: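 Donor wells held 50 μM compound (DMSO <1% v/v, diluted from 10 mM stocks) in buffer; filter membrane coated with 2% w/v DOPC in n-dodecane. Sandwich incubated 3 h at 25 ℃, then donor and acceptor drug amounts quantified by UV spectra (220–400 nm) against reference standards.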

glioma U87 = assay: Cell viability, resazurin assay, U87; settings: Homo sapiens, 24 h, read-out: U87 IC50
Protocol: (§2) Cells were maintained in a humidified incubator at 37 °C in 5% CO2, and cell viability was determined with the resazurin assay (Cayman Chemical, USA) after the incubation with compounds for indicated concentrations and times or DMSO as control.[72]

lung cancer A549 = assay: Cell viability, resazurin assay, A549; settings: Homo sapiens, A549, 24 h, read-out: A549 IC50
Protocol: as §2

[2] = test system: multiple myeloma RPMI8226; assay: Cell viability, resazurin assay, RPMI8226; settings: for IC50: Homo sapiens
Protocol: as §2

[3] = test system: human vascular endothelial EA.hy926 cells; assay: Cell viability, resazurin assay, EA.hy926; settings: EA.hy 926, 24 h, read-out: EAhy926 IC50
Protocol: as §2

breast cancer MDA-MB-231 = assay: Cell viability, resazurin assay, MDA-MB-231; settings: Homo sapiens, MDA-MB-231, 24 h, read-out: MDA-MB-231 IC50
Protocol: as §2

[4] = target: purified human recombinant PDI (rPDI) (Homo sapiens, UniProt P07237); assay: Recombinant PDI reductase activity (Di-E-GSSG assay)
Protocol: (§3) In this assay, a nonfluorescent substrate, dieosin glutathione disulfide (Di-E-GSSG), was reduced into a fluorescent product eosin-glutathione (E-GSH) by platelet surface PDI in the presence of 5 μM dithiothreitol (DTT).

platelet surface PDI = platelet surface PDI (Homo sapiens, UniProt P07237); assay: Cell surface PDI reductase activity on intact human platelets (Di-E-GSSG assay)
platelet surface PDI, sequence (P07237 18-508): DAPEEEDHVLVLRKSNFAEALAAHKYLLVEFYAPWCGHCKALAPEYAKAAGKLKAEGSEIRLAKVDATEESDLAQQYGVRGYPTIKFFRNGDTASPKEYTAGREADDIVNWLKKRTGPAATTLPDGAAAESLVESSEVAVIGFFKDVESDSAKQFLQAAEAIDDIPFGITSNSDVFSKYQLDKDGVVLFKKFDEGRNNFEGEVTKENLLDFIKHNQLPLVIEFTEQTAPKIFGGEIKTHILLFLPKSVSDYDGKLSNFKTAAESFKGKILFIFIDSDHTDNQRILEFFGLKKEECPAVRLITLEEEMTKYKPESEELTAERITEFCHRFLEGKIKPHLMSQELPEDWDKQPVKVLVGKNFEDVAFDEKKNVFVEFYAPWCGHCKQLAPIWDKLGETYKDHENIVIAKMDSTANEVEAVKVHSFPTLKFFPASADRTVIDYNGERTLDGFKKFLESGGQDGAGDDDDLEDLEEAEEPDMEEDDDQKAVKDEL
Protocol: as §3

purified human recombinant PDI (rPDI), sequence (P07237 18-508): as above

IC50 (washed human platelets): 0.95 ± 0.1 µM | concentrations inhibiting ERp57 and ERp72 relative to PDI (ERp57 (PDIA3); ERp57 and ERp72 together, fold higher than required to inhibit PDI): 4 to 7 fold | IC50 (ERp57 (PDIA3); human recombinant, Di-E-GSSG): 6.98 ± 1.78 µM | IC50 (ERp72 (PDIA4)): 13.7 ± 0.66 µM | Permeability (%) [1]: 10.64% | IC50 (glioma U87): > 20 µM | IC50 (lung cancer A549): 36.8 ± 1.93 µM | IC50 ([2]; RPMI-8226, 24 h, read-out: RPMI8226 IC50): 0.57 ± 0.01 µM | IC50 ([2]; RPMI-8226, 72 h, read-out: RPMI8226 IC50, 72 h): 0.061 µM | IC50 (breast cancer MDA-MB-231): 6.96 ± 0.47 µM | IC50 [4]: 1.87 ± 0.56 µM | IC50 (platelet surface PDI): 0.42 ± 0.07 µM
SMILES: CC(=O)OC1O[C@H](CSC2=CC(=O)c3cccc(O)c3C2=O)[C@@H](OC(C)=O)C(OC(C)=O)[C@H]1OC(C)=O (stereo in doubt) [Compound 18, 2-(1,2,3,4-Tetra-O-acetyl-6-deoxy-6-thio-α-D-glucopyranose)-8-hydroxynaphthalene-1,4-dione]
S.I. (EAhy926/RPMI8226), selectivity index ([2]; 24 h IC50 ratio): 12.8 | IC50 [3]: 7.27 ± 0.08 µM
